Among the data in patent publication US6187781A, “4-Tetrahydropyridylpyrimidine derivatives” (Taisho Pharmaceutical Co., Ltd., priority 1997, dated 2001) are IC50 values, retold here.

Counter-ions that a name gives are not always drawn.

The experiment concerns the target T1, CRF receptor (Rattus norvegicus, UniProt P35353).
T1 sequence (P35353 24-415): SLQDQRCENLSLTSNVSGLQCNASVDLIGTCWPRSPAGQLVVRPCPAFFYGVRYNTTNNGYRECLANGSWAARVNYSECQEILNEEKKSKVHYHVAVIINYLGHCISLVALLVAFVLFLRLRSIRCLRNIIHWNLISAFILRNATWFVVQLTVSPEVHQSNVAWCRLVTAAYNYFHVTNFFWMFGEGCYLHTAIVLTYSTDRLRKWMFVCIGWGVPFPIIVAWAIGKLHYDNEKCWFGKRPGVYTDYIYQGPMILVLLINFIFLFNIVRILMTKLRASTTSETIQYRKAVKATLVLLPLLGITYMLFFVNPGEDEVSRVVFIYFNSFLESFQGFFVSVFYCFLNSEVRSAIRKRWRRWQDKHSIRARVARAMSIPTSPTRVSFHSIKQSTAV
In words: CRF receptor Binding Assay ([125I]-CRF, rat frontal cortical membranes). The following applies: 125I-CRF 0.2 nM; rat frontal cortical membranes 0.3 mg-protein/ml; 25° C., 2 hours; nonspecific binding with 1 μM CRF; read-out: IC50 (concentration of the test compound which 50% inhibits the 125I-CRF binding).
Take `CCN(c1nc(C)cc(N2CC=C(c3ccccc3)CC2)n1)c1ccc(C(C)C)cc1Br` [Compound 1-01, 2-[N-(2-bromo-4-isopropylphenyl)-N-ethylamino]-4-(4-phenyl-1,2,3,6-tetrahydropyridin-1-yl)-6-methylpyrimidine hydrochloride]: the IC50 turned out to be 66.1 nM.

On to `CCN(c1nc(C)cc(N2CC=C(c3cccc(F)c3)CC2)n1)c1ccc(C(C)C)cc1Br` [Compound 1-02], for which the IC50 was 22.1 nM.

In the case of `C#CCN(c1nc(C)cc(N2CC=C(c3cccc(F)c3)CC2)n1)c1ccc(C(C)C)cc1Br` [Compound 1-03], the IC50 amounted to 32.2 nM.

For the compound `CCN(c1nc(C)cc(N2CC=C(c3cccc(F)c3)CC2)n1)c1ccc(C(C)C)cc1I` [Compound 1-05], the IC50 was 27.6 nM.

As to `CCN(c1nc(C)cc(N2CC=C(c3cccc(F)c3)CC2)n1)c1ccc(C(C)C)cc1SC` [Compound 1-06], the IC50 stood at 10.5 nM.

Consider `C#CCN(c1nc(C)cc(N2CC=C(c3cccc(F)c3)CC2)n1)c1ccc(C(C)C)cc1SC` [Compound 1-08], for which the IC50 came out at 89 nM.

On to `CCN(c1nc(C)cc(N2CC=C(c3cccc(F)c3)CC2)n1)c1ccc(N(C)C)cc1Br` [Compound 1-12], for which the IC50 stood at 38.5 nM.

Take `CCN(c1nc(C)cc(N2CC=C(c3cccc(F)c3)CC2)n1)c1c(C)cc(C)cc1C` [Compound 1-14]: the IC50 was determined as 73.9 nM.

On to `CCN(c1nc(C)cc(N2CC=C(c3ccc(F)cc3)CC2)n1)c1ccc(C(C)C)cc1Br` [Compound 1-15], for which the IC50 was determined as 79.3 nM.

As for `CCN(c1nc(C)cc(N2CC=C(c3ccc(F)cc3)CC2)n1)c1ccc(C(C)C)cc1SC` [Compound 1-16], the IC50 amounted to 81.1 nM.

Take `CCN(c1nc(C)cc(N2CC=C(c3ccc(F)cc3)CC2)n1)c1ccc(N(C)C)cc1Br` [Compound 1-17]: the IC50 stood at 73.9 nM.

For the compound `CCN(c1nc(C)cc(N2CC=C(c3ccc(F)c(F)c3)CC2)n1)c1ccc(C(C)C)cc1Br` [Compound 1-20], the IC50 is 49.8 nM.

For the compound `CCN(c1nc(C)cc(N2CC=C(c3ccc(F)c(F)c3)CC2)n1)c1ccc(C(C)C)cc1SC` [Compound 1-21], the IC50 worked out at 81.1 nM.

Take `CCN(c1nc(C)cc(N2CC=C(c3ccc(F)c(F)c3)CC2)n1)c1ccc(N(C)C)cc1Br` [Compound 1-22]: the IC50 was 89 nM.

In the case of `CCN(c1nc(C)cc(N2CC=C(c3cc(F)cc(F)c3)CC2)n1)c1ccc(C(C)C)cc1Br` [Compound 1-25], the IC50 was 46.4 nM.

With `CCN(c1nc(C)cc(N2CC=C(c3cc(F)cc(F)c3)CC2)n1)c1ccc(C(C)C)cc1SC` [Compound 1-26], the IC50 stood at 35.1 nM.

In the case of `C#CCN(c1nc(C)cc(N2CC=C(c3cc(F)cc(F)c3)CC2)n1)c1ccc(C(C)C)cc1SC` [Compound 1-27], the IC50 amounted to 12.6 nM.

Turning to `CCN(c1nc(C)cc(N2CC=C(c3cccc(Cl)c3)CC2)n1)c1ccc(C(C)C)cc1Br` [Compound 1-30, 2-[N-(2-bromo-4-isopropylphenyl)-N-ethylamino]-4-[4-(3-chlorophenyl)-1,2,3,6-tetrahydropyridin-1-yl]-6-methylpyrimidine hydrochloride], the IC50 was 24.8 nM.

On to `C#CCN(c1nc(C)cc(N2CC=C(c3cccc(Cl)c3)CC2)n1)c1ccc(C(C)C)cc1Br` [Compound 1-31], for which the IC50 came out at 96.2 nM.

As to `CCN(c1nc(C)cc(N2CC=C(c3cccc(Cl)c3)CC2)n1)c1ccc(N(C)C)cc1Br` [Compound 1-33], the IC50 came to 55.9 nM.

On to `CCN(c1nc(C)cc(N2CC=C(c3cccc(Cl)c3)CC2)n1)c1ccc(C(C)C)cc1SC` [Compound 1-34], for which the IC50 amounted to 20.1 nM.

For `C#CCN(c1nc(C)cc(N2CC=C(c3cccc(Cl)c3)CC2)n1)c1ccc(C(C)C)cc1SC` [Compound 1-36], the IC50 came to 51.5 nM.

Regarding `CCN(c1nc(C)cc(N2CC=C(c3ccc(Cl)cc3)CC2)n1)c1ccc(C(C)C)cc1Br` [Compound 1-41], the IC50 is 38.9 nM.

In the case of `C#CCN(c1nc(C)cc(N2CC=C(c3ccc(Cl)cc3)CC2)n1)c1ccc(C(C)C)cc1Br` [Compound 1-46], the IC50 is 31.3 nM.

Take `CCN(c1nc(C)cc(N2CC=C(c3ccc(Cl)cc3)CC2)n1)c1ccc(C(C)C)cc1SC` [Compound 1-51]: the IC50 was found to be 21.5 nM.

Regarding `CCN(c1nc(C)cc(N2CC=C(c3ccc(Cl)cc3)CC2)n1)c1ccc(C2CCCC2)cc1SC` [Compound 1-54], the IC50 turned out to be 65.8 nM.

Regarding `CCN(c1nc(C)cc(N2CC=C(c3ccc(Cl)cc3)CC2)n1)c1ccc(N(C)C)cc1Br` [Compound 1-55], the IC50 is 45.4 nM.

For `CCN(c1nc(C)cc(N2CC=C(c3ccc(Cl)cc3)CC2)n1)c1ccc(Br)cc1Br` [Compound 1-57], the IC50 turned out to be 65.8 nM.

With `CCN(c1nc(C)cc(N2CC=C(c3ccc(Cl)c(Cl)c3)CC2)n1)c1ccc(C(C)C)cc1Br` [Compound 1-61], the IC50 is 67.3 nM.

With `CCN(c1nc(C)cc(N2CC=C(c3ccc(Cl)c(Cl)c3)CC2)n1)c1ccc(C(C)C)cc1SC` [Compound 1-62], the IC50 was determined as 32 nM.

`CCN(c1nc(C)cc(N2CC=C(c3cccc(C(F)(F)F)c3)CC2)n1)c1ccc(C(C)C)cc1Br` [Compound 1-66]: the IC50 came out at 46.4 nM.

Turning to `CCN(c1nc(C)cc(N2CC=C(c3cccc(C(F)(F)F)c3)CC2)n1)c1ccc(N(C)C)cc1Br` [Compound 1-67], the IC50 worked out at 61.4 nM.

`CCN(c1nc(C)cc(N2CC=C(c3cccc(C(F)(F)F)c3)CC2)n1)c1ccc(C(C)C)cc1SC` [Compound 1-68]: the IC50 was determined as 38.5 nM.

Turning to `CCN(c1nc(C)cc(N2CC=C(c3cccc(C(F)(F)F)c3)CC2)n1)c1c(C)cc(C)cc1C` [Compound 1-71], the IC50 amounted to 55.9 nM.

In the case of `CCN(c1nc(C)cc(N2CC=C(c3cccc(C)c3)CC2)n1)c1ccc(C(C)C)cc1Br` [Compound 1-73], the IC50 came out at 65.8 nM.

As for `CCN(c1nc(C)cc(N2CC=C(c3ccc(C)cc3)CC2)n1)c1ccc(C(C)C)cc1Br` [Compound 1-74], the IC50 was determined as 62.9 nM.

On to `CCN(c1nc(C)cc(N2CC=C(c3ccc(OC)cc3)CC2)n1)c1ccc(C(C)C)cc1Br` [Compound 1-77], for which the IC50 was 82.4 nM.

In the case of `CCN(c1nc(C)cc(N2CC=C(c3cccs3)CC2)n1)c1ccc(C(C)C)cc1Br` [Compound 1-78, 2-[N-(2-bromo-4-isopropylphenyl)-N-ethylamino]-4-[4-(thiophen-2-yl)-1,2,3,6-tetrahydropyridin-1-yl]-6-methylpyrimidine], the IC50 worked out at 52.2 nM.

With `CCN(c1nc(C)cc(N2CC=C(c3ccco3)CC2)n1)c1ccc(C(C)C)cc1Br` [Compound 1-79, 2-[N-(2-bromo-4-isopropylphenyl)-N-ethylamino]-4-[4-(furan-2-yl)-1,2,3,6-tetrahydropyridin-1-yl]-6-methylpyrimidine], the IC50 stood at 44.5 nM.

As for `CCN(c1nc(C)cc(N2CCC=C(c3ccccc3)C2)n1)c1ccc(C(C)C)cc1Br` [Compound 2-01, 2-[N-(2-bromo-4-isopropylphenyl)-N-ethylamino]-4-(5-phenyl-1,2,3,6-tetrahydropyridin-1-yl)-6-methylpyrimidine hydrochloride], the IC50 was 89 nM.

In the case of `CCN(c1nc(C)cc(N2CCC=C(c3cccc(F)c3)C2)n1)c1ccc(C(C)C)cc1Br` [Compound 2-02], the IC50 stood at 96.2 nM.

`CCN(c1nc(C)cc(N2CCC=C(c3cccc(F)c3)C2)n1)c1ccc(C(C)C)cc1SC` [Compound 2-03]: the IC50 was determined as 82.3 nM.

For the compound `CCN(c1nc(C)cc(N2CCC=C(c3ccc(F)cc3)C2)n1)c1ccc(C(C)C)cc1Br` [Compound 2-04], the IC50 amounted to 82.3 nM.

As for `CCN(c1nc(C)cc(N2CCC=C(c3ccc(F)cc3)C2)n1)c1ccc(C(C)C)cc1SC` [Compound 2-05], the IC50 came to 27.6 nM.

`CCN(c1nc(C)cc(N2CCC=C(c3ccc(F)cc3)C2)n1)c1ccc(N(C)C)cc1Br` [Compound 2-06]: the IC50 came to 96.2 nM.

Consider `C#CCN(c1nc(C)cc(N2CCC=C(c3ccc(F)cc3)C2)n1)c1ccc(C(C)C)cc1SC` [Compound 2-07], for which the IC50 was found to be 20.2 nM.

As for `CCN(c1nc(C)cc(N2CCC=C(c3cccc(Cl)c3)C2)n1)c1ccc(C(C)C)cc1SC` [Compound 2-09], the IC50 is 97.7 nM.

Regarding `CCN(c1nc(C)cc(N2CCC=C(c3cc(F)cc(F)c3)C2)n1)c1ccc(C(C)C)cc1SC` [Compound 2-13], the IC50 was found to be 82.3 nM.

Regarding `CCN(c1nc(C)cc(N2CCC=C(c3ccccc3C)C2)n1)c1ccc(C(C)C)cc1SC` [Compound 2-15, 2-[N-(4-isopropyl-2-methylthiophenyl)-N-ethylamino]-4-[5-(2-methylphenyl)-1,2,3,6-tetrahydropyridin-1-yl]-6-methylpyrimidine hydrochloride], the IC50 was 10.8 nM.

For `CCN(c1nc(C)cc(N2CCC=C(c3cccc(C)c3)C2)n1)c1ccc(C(C)C)cc1SC` [Compound 2-18], the IC50 turned out to be 70.4 nM.

`CCN(c1nc(C)cc(N2CCC=C(c3ccc(C)cc3)C2)n1)c1ccc(C(C)C)cc1SC` [Compound 2-19]: the IC50 amounted to 70.4 nM.
